# Paper PMC4122817, “Target Engagement Analysis and Link to Pharmacodynamic Endpoint for a Novel Class of CNS-penetrant and Efficacious p38α MAPK Inhibitors” (Journal of Neuroimmune Pharmacology, 2014)
# Target: T1, p38α MAPK (Mus musculus, UniProt P47811)
# T1 construct: gene Mapk14; endogenous p38α MAPK in the murine microglial BV-2 cell line
# Assay: western blot of phosphorylated substrate MK2 in LPS-stimulated BV2 cells (pMSK1 IC50 […]); in vivo effect lost in p38α T106M knock-in mice
# Assay type: cell-based
# T1 sequence (P47811 2-360): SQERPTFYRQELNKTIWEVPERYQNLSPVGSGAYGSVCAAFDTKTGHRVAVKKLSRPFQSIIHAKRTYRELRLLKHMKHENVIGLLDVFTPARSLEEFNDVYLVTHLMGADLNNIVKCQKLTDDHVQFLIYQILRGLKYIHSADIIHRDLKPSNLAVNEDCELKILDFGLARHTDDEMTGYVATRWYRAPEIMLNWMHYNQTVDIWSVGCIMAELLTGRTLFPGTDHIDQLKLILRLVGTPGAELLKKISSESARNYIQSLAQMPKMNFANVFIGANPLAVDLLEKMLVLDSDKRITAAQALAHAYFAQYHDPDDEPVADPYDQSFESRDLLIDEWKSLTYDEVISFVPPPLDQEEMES
substance,measurement,value
MW181,IC50,1200 nM
